Assay results reported in patent publication US20070009886A1, “Carbohydrate-associated proteins” (Incyte Corporation, priority 2002, published 2007).

What was measured:
[1] = intranasal, relative to hydrocortisone; cited from earlier work
[2] = relative to progesterone; cited from earlier work
[3] = system: SEQ ID NO:37 expression in PBMCs; assay: Microarray analysis of SEQ ID NO:37 expression in cytokine-treated versus untreated PBMCs; format: cell-based, human; settings: 10 ng/ml recombinant IL-4, 2 hours, pooled PBMCs of 6 healthy donors
Experimental: Total RNA is isolated from tissue samples using the guanidinium thiocyanate method and poly(A)^+ RNA is purified using the oligo-(dT) cellulose method. Each poly(A)^+ RNA sample is reverse transcribed using MMLV reverse-transcriptase, 0.05 pg/μl oligo-(dT) primer (21mer), 1× first strand buffer, 0.03 units/μl RNase inhibitor, […], […], 500 μM dTTP, 40 μM dCTP, 40 μM dCTP-Cy3 (BDS) or dCTP-Cy5 (Amersham Biosciences). The reverse transcription reaction is performed in a […] containing 200 ng poly(A)^+ RNA with GEMBRIGHT kits (Incyte). Specific control poly(A)^+ RNAs are synthesized by in vitro transcription from non-coding yeast genomic DNA. […]
Sequences of the present invention are used to generate array elements. […] Array elements are amplified in thirty cycles of PCR from an initial quantity of 1-2 ng to a final quantity greater than 5 μg. […]
Reporter-labeled hybridization complexes are detected with a microscope equipped with an Innova 70 mixed gas 10 W laser (Coherent, Inc., Santa Clara Calif.) capable of generating spectral lines at 488 nm for excitation of Cy3 and at 632 nm for excitation of Cy5. […]
A grid is superimposed over the fluorescence signal image such that the signal from each spot is centered in each element of the grid. […]

Molecule: C[C@H]1C[C@H]2[C@@H]3CCC4=CC(=O)C=C[C@]4(C)[C@@]3(Cl)[C@@H](O)C[C@]2(C)[C@@]1(O)C(=O)CO [beclomethasone]
- anti-inflammatory and vasoconstrictive effects greater than those produced by hydrocortisone [1]: 5000 times

Molecule: 6α-methyl-17-hydroxyprogesterone [medroxyprogesterone]
- pharmacological activity greater than progesterone [2]: about 15 times

B1: IL-4: a pleiotropic cytokine produced by activated T cells, mast cells, and basophils (protein, UniProt P05112 25-153, looked up)
Interleukin-4: HKCDITLQEIIKTLNSLTEQKTLCTELTVTDIFAASKNTTEKETFCRAATVLRQFYSHHEKDTRCLGATAQQFHRHKQLIRFLKRLDRNLWGLAGLNSCPVKEANQSTLENFLERLKTIMREKYSKCSS
- expression of SEQ ID NO:37 increased in comparison to untreated PBMCs [3]: at least 2 fold
